Paper PMC6044507 (ACS Omega, 2018)
“Also recorded” adds a separate entry of the source.

How the values were obtained:
human GPR84 [1] = target: T1, human GPR84 (Homo sapiens, UniProt Q9NQS5); experiment: cell-based; format: cell-based; conditions: for Emax: read-out: efficacy (Emax), cAMP assay; for EC50: CHO cells expressing human GPR84, forskolin 10 μM
Target sequence in this assay (Q9NQS5 whole entry): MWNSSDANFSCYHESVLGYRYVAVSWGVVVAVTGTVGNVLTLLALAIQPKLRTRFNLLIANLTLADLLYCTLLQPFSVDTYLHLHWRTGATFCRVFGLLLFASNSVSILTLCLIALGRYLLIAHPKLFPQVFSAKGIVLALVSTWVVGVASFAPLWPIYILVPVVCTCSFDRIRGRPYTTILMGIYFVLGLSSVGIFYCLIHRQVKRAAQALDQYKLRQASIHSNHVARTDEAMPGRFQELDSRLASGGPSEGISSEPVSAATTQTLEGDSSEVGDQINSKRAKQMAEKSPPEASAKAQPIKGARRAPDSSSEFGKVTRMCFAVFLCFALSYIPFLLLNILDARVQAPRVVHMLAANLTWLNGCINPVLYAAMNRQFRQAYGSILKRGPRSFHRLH

human GPR84 [2] = experiment: pathway bias calculation, Gi; format: cell-based; conditions: corresponding to the bias factor
[3] = metabolic stability in human liver microsomes; format: in vitro ADME; conditions: for metabolic stability, in words: human liver microsomes 0.5 mg/mL, compound 1 μM; for degradation after an incubation period of 60 min: human liver microsomes; for degradation after 30 min of incubation, in words: human microsomes
CHO wild-type (wt) cells = experiment: cAMP accumulation assay in wild-type CHO cells not expressing GPR84
human GPR84 [4] = target: T1, human GPR84; experiment: cell-based; conditions: EC50 ± SEM, β-arrestin assay, CHO cells expressing human GPR84
Target sequence in this assay (Q9NQS5 whole entry): as above
Target sequence in this assay (P32121 whole entry partner): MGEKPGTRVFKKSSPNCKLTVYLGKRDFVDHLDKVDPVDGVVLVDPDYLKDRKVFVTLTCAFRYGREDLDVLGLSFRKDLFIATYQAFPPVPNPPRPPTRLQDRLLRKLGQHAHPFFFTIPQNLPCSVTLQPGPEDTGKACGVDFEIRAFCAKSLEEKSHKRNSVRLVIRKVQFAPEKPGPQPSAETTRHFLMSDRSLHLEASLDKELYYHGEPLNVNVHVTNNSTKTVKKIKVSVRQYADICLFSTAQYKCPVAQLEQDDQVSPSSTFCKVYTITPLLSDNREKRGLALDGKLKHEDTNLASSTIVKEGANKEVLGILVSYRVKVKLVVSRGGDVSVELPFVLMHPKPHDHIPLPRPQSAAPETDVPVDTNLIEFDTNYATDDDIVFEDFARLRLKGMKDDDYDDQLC

[5] = tested on: X-linked inhibitor of apoptosis; conditions: read-out: IC50, X-linked inhibitor of apoptosis; cited from earlier work
rodents = conditions: orally, acute exposure; cited from earlier work
human GPR84 [6] = target: T1, human GPR84; conditions: compound 10 μM
Target sequence in this assay (Q9NQS5 whole entry): as the sequence (Q9NQS5 whole entry) above
Target sequence in this assay (P32121 whole entry partner): as the sequence (P32121 whole entry partner) above

[7] = high concentrations of up to 100 μM
[8] = both, human, pooled human liver microsomes

Compound: O=c1cc(NCCc2ccc(Br)cc2)[nH]c(=O)[nH]1 [Compound 48, 6-(p-Bromophenylethylamino)-2,4(1H,3H)-pyrimidinedione]
- Emax (human GPR84 [1]): 127%
- preference for Gi coupling versus β-arrestin recruitment (human GPR84 [2]): 20 fold
- metabolic stability, in words [3]: metabolically stable; also recorded: highly stable
- degradation after an incubation period of 60 min [3]: negligible
- degradation after 30 min of incubation, in words [3]: no degradation
- effect on forskolin-induced cAMP accumulation in CHO wt cells (CHO wild-type (wt) cells; concentrations of up to 1 μM): None of the tested compounds showed any significant effect

Compound: CCCCCCNc1cc(=O)[nH]c(=O)[nH]1 [Compound 20, 6-Hexylamino-2,4(1H,3H)-pyrimidinedione]
- Emax (human GPR84 [1]): 127%
- metabolic stability, in words [3]: metabolically stable; also recorded: highly stable
- degradation after an incubation period of 60 min [3]: negligible
- degradation after 30 min of incubation, in words [3]: no degradation
- effect on forskolin-induced cAMP accumulation in CHO wt cells (CHO wild-type (wt) cells; concentrations of up to 1 μM): None of the tested compounds showed any significant effect
- effect on forskolin-induced cAMP accumulation in CHO wt cells (CHO wild-type (wt) cells; [7]): no effect

Compound: CCc1ccc(CCNc2cc(=O)[nH]c(=O)[nH]2)cc1 [Compound 49, 6-(p-Ethylphenylethylamino)-2,4(1H,3H)-pyrimidinedione]
- EC50 (human GPR84 [1]; EC50, cAMP assay): < 10 nM
- Emax (human GPR84 [1]): 136%
- EC50 (human GPR84 [4]): 120 ± 50 nM
- effect on forskolin-induced cAMP accumulation in CHO wt cells (CHO wild-type (wt) cells; concentrations of up to 1 μM): None of the tested compounds showed any significant effect

Compound: CCCCCCCCCNc1cc(=O)[nH]c(=O)[nH]1 [Compound 22, 6-Nonylamino-2,4(1H,3H)-pyrimidinedione]
- Emax (human GPR84 [1]): 118%
- half-life at 1 μM [3, 8]: 2 min
- microsomal CLint at 1 μM [3, 8]: 880 µL/min/mg
- EC50 (human GPR84 [4]): 34 ± 7 nM

Compound: CCCCCCCCNc1cc(=O)[nH]c(=O)[nH]1 [Compound 4, 6-octylaminouracil]
- Emax (human GPR84 [1]): 104%
- effect in nontransfected CHO cells (cAMP assay) (CHO wild-type (wt) cells): no effect
- effect on forskolin-induced cAMP accumulation in CHO wt cells (CHO wild-type (wt) cells; concentrations of up to 1 μM): None of the tested compounds showed any significant effect
- effect on forskolin-induced cAMP accumulation in CHO wt cells (CHO wild-type (wt) cells; [7]): no effect

Compound: CCCCCCCCCCCC1=C(O)C(=O)C=C(O)C1=O [embelin (6), embelin]
- IC50 [5]: 4100 nM
- dose found to be safe (rodents): up to 3 g/kg

Compound: O=c1cc(NCCc2c[nH]c3ccccc23)[nH]c(=O)[nH]1 [Compound 62, 6-(1H-Indol-3-ylethylamino)-2,4(1H,3H)-pyrimidinedione]
- percent receptor activation at 10 μM, β-arrestin assay (human GPR84 [6]): 14%
- EC50 (human GPR84 [4]): > 10000 nM

Compound: COc1ccc(CCNc2cc(=O)[nH]c(=O)[nH]2)cc1OC [Compound 60, 6-(m,p-Dimethoxyphenethylamino)-2,4(1H,3H)-pyrimidinedione]
- EC50 (human GPR84 [1]; EC50 ± SEM, cAMP assay): 810 ± 230 nM
- Emax (human GPR84 [1]): 116%
- percent receptor activation at 10 μM, β-arrestin assay (human GPR84 [6]): 28%
- EC50 (human GPR84 [4]): > 10000 nM

Compound: CCCCCCCCCCNc1cc(=O)n(C)c(=O)[nH]1 [Compound 33, 6-Decylamino-3-methyl-2,4(1H,3H)-pyrimidinedione]
- EC50 (human GPR84 [1]; EC50 ± SEM, cAMP assay): 1900 ± 680 nM
- Emax (human GPR84 [1]): 72%
- percent receptor activation at 10 μM, β-arrestin assay (human GPR84 [6]): 8%
- EC50 (human GPR84 [4]): > 10000 nM

Compound: Oc1cc(NCCc2ccccc2)nc(O)n1 [Compound 42, 6-(2-Phenylethylamino)-2,4(1H,3H)-pyrimidinedione]
- metabolic stability, in words [3]: highly stable
- degradation after an incubation period of 60 min [3]: negligible
- degradation after 30 min of incubation, in words [3]: no degradation

Compound: O=c1cc(NCCc2ccc(Cl)cc2)[nH]c(=O)[nH]1 [Compound 47, 6-((p-chlorophenylethyl)amino)-2,4(1H,3H)-pyrimidinedione]
- Emax (human GPR84 [1]): 137%
- preference for Gi coupling versus β-arrestin recruitment (human GPR84 [2]): 79 fold
- effect on forskolin-induced cAMP accumulation in CHO wt cells (CHO wild-type (wt) cells; concentrations of up to 1 μM): None of the tested compounds showed any significant effect
